We go through 13 compounds from ChEMBL document CHEMBL1201862, “PubChem BioAssay data set” (2004).

Each structure is given as a SMILES string.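 Growth conditions: 96-well plates. Treatment: test compound, 48 hours, 5 concentrations. Analysis: linear interpolation between bracketing concentrations; unreached endpoints set to highest concentration. GI50 = concentration required for 50% inhibition of growth.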 Calls of active or inactive are those of the source. No stated cut-off is given here; in the data, active = GI50 up to about 1.1 µM and inactive = higher.

Some test systems named below: UO-31; HOP-92; HCC 2998; KM12; HCT-15; OVCAR-8; NCI/ADR-RES; Hs-578T; T47D; RPMI-8226; SNB-19; SK-MEL-28; SF-268; IGROV-1; SK-OV-3; NCI-H522; RXF 393; PC-3.
Common to all, as to test: NCI tumour cell line growth inhibition, 48 h

For `C=CC[C@@H]1C=C[C@@H](C(=O)OC)n2c(=O)n(-c3ccccc3)c(=O)n21`, the GI50 in the assay with UO-31 is > 100 µM (inactive); with HOP-92, > 100 µM (inactive); in the assay on HCC 2998, > 100 µM (inactive); in the assay on KM12, > 100 µM (inactive); in the assay on HCT-15, more than 100 µM; with OVCAR-8, > 100 µM (inactive). Besides, the GI50 in the assay with NCI/ADR-RES, with Hs-578T, in the assay with T47D, in the assay with RPMI-8226, with SNB-19 and in the assay on SK-MEL-28 was > 100 µM (inactive) throughout. Further, the GI50 in the assay with SF-268, in the assay with IGROV-1, in the assay with SK-OV-3 and in the assay on NCI-H522 was > 100 µM (inactive) throughout.

For the compound `CCOC(=O)Cc1nc2nn(Cc3ccccc3)cc2c(=O)[nH]1`, the GI50 was > 100 µM (inactive) with UO-31; > 100 µM (inactive) in the assay on HCC 2998; > 100 µM (inactive) in the assay on KM12; more than 100 µM in the assay with HCT-15; > 100 µM (inactive) in the assay with OVCAR-8; > 100 µM (inactive) in the assay on NCI/ADR-RES. For the same compound, the GI50 in the assay on T47D, in the assay on RPMI-8226, with SNB-19, with SK-MEL-28, in the assay with SF-268 and with RXF 393 was > 100 µM (inactive) each time. For the same compound, the GI50 with IGROV-1 and in the assay with SK-OV-3 was > 100 µM (inactive) throughout.

Take `Cc1c2c(c(O)c3c(O)cccc13)C(=O)C1(O)C(=O)C(C(=O)NCNc3ccc(C(N)=O)cn3)=C(O)C(N(C)C)C1C2` (stereo not drawn): the GI50 in the assay on HOP-92 is 2.01 µM (inactive); with HCC 2998, 3.07 µM (inactive); with KM12, 3.53 µM (inactive); in the assay on PC-3 it was 3.68 µM (inactive); in the assay with HCT-15 it was 2.8 µM; in the assay with OVCAR-8 it was 3.21 µM (inactive). The GI50 in the assay on NCI/ADR-RES was 5.5 µM (inactive); in the assay with T47D, 5.61 µM (inactive); in the assay with RPMI-8226 it was 1.83 µM (inactive); in the assay with SK-MEL-28, 3.53 µM (inactive); in the assay on SF-268 it was 3.61 µM (inactive); in the assay on RXF 393, 2.89 µM (inactive). In addition, the results for the GI50 with IGROV-1 and in the assay on SK-OV-3 were 1.82 µM (inactive) and 3.1 µM (inactive), respectively.

On to `Cc1ccc(S(=O)(=O)Oc2nc3nc4ccccc4nc3nc2OS(=O)(=O)c2ccc(C)cc2)cc1`, for which the GI50 with UO-31 is 53.7 µM (inactive); in the assay with HCC 2998 it was > 100 µM (inactive); with KM12 it was > 100 µM (inactive); with PC-3 it was > 100 µM (inactive); in the assay with HCT-15 it was more than 100 µM; in the assay on OVCAR-8 it was > 100 µM (inactive). The GI50 in the assay with NCI/ADR-RES, with Hs-578T, in the assay with RPMI-8226, with SNB-19, in the assay with SK-MEL-28 and in the assay with SF-268 was > 100 µM (inactive) each time. Also, the GI50 in the assay on RXF 393, with IGROV-1, with SK-OV-3 and in the assay with NCI-H522 was > 100 µM (inactive) each time.

With `CN(C)c1ccc(C2=C([O-])c3cc(-[n+]4ccccc4)ccc3C2=O)cc1`, the GI50 in the assay with UO-31 was > 100 µM (inactive); in the assay with HOP-92, > 100 µM (inactive); with HCC 2998 it was > 100 µM (inactive); with KM12 it was > 100 µM (inactive); with PC-3, > 100 µM (inactive); with HCT-15 it was more than 100 µM. Further, the GI50 with OVCAR-8, with NCI/ADR-RES, with Hs-578T, with RPMI-8226, in the assay on SNB-19 and with SK-MEL-28 was > 100 µM (inactive) each time. Also, the GI50 in the assay on SF-268, in the assay with RXF 393, with IGROV-1 and in the assay on NCI-H522 was > 100 µM (inactive) throughout.

Regarding `CC(=O)Nc1ccc(N2C(=O)/C(=C\c3cccc(Oc4ccccc4)c3)SC2c2ccccc2)cc1` (stereo not drawn), the GI50 is 82.6 µM (inactive) with UO-31; 16.6 µM (inactive) in the assay with HOP-92; > 100 µM (inactive) in the assay with HCC 2998; 24.4 µM (inactive) with KM12; 78.5 µM with HCT-15; 17.1 µM (inactive) in the assay on OVCAR-8. Also, the GI50 with NCI/ADR-RES was 29.5 µM (inactive); with Hs-578T, 12.7 µM (inactive); in the assay with T47D, 54.1 µM (inactive); in the assay with RPMI-8226 it was 24.7 µM (inactive); in the assay with SNB-19 it was 19.8 µM (inactive); in the assay with SK-MEL-28, 27.4 µM (inactive). For the same compound, the GI50 with SF-268 was 50.6 µM (inactive); in the assay with RXF 393 it was 30.4 µM (inactive); in the assay on SK-OV-3, 16.1 µM (inactive); in the assay on NCI-H522 it was 23.2 µM (inactive).

On to `Nc1c(-c2ccc(Cl)c(Cl)c2)c2ccc([N+](=O)[O-])cc2c(=O)n1-c1nc2ccccc2s1`, for which the GI50 is 0.445 µM (active) in the assay with UO-31; 0.296 µM (active) with HOP-92; 18.6 µM (inactive) with HCC 2998; 0.64 µM (active) in the assay with KM12; 0.311 µM (active) with PC-3; 0.46 µM in the assay with HCT-15. Moreover, the GI50 with OVCAR-8 was 0.366 µM (active); in the assay with NCI/ADR-RES, 0.577 µM (active); with T47D, 0.386 µM (active); in the assay on RPMI-8226, 0.391 µM (active); with SNB-19, 0.418 µM (active); with SK-MEL-28 it was 18.2 µM (inactive). For the same compound, the GI50 in the assay with SF-268 is 0.531 µM (active); with RXF 393, 0.689 µM (active); in the assay on IGROV-1, 0.796 µM (active); with SK-OV-3, 0.689 µM (active); in the assay on NCI-H522, 0.193 µM (active).

`Oc1ccc2c3c1OC1c4[nH]c5c(c4CC4(O)C(C2)N(CC2CC2)CC[C@]314)CC1(O)C2Cc3ccc(O)c4c3[C@@]1(CCN2CC1CC1)C5O4` (stereo partly drawn): the GI50 with UO-31 was > 100 µM (inactive); in the assay on HOP-92, 23 µM (inactive); in the assay with HCC 2998, 18.7 µM (inactive); in the assay on KM12 it was 17.5 µM (inactive); in the assay with PC-3, 43.5 µM (inactive); with HCT-15 it was more than 100 µM. Further, the GI50 in the assay with OVCAR-8 was 51.9 µM (inactive); in the assay on NCI/ADR-RES, > 100 µM (inactive); with T47D, 18.6 µM (inactive); in the assay with RPMI-8226 it was 25.2 µM (inactive); in the assay with SNB-19 it was 24.3 µM (inactive); with SK-MEL-28 it was 20.1 µM (inactive). Besides, the GI50 was 19.8 µM (inactive) in the assay with SF-268; 18.1 µM (inactive) in the assay on RXF 393; > 100 µM (inactive) in the assay with IGROV-1; 43 µM (inactive) in the assay on SK-OV-3; 19.3 µM (inactive) in the assay on NCI-H522.

As for `CO/C(=N\N=C\c1ccccc1F)c1ccncc1`, the GI50 is > 10 µM (inactive) with UO-31; > 10 µM (inactive) in the assay on HOP-92; > 10 µM (inactive) with HCC 2998; > 10 µM (inactive) with KM12; > 10 µM (inactive) in the assay on PC-3; more than 10 µM with HCT-15. The GI50 in the assay on OVCAR-8, in the assay with NCI/ADR-RES, with T47D, with RPMI-8226, in the assay with SNB-19 and in the assay on SF-268 was > 10 µM (inactive) each time. In addition, the GI50 in the assay with RXF 393 and in the assay on NCI-H522 was > 10 µM (inactive) in each case.

As for `C=C(Cl)C(Br)(CBr)CCC(Br)C(C)(C)Br` (stereo not drawn), the GI50 in the assay on UO-31 is > 10 µM (inactive); in the assay with HOP-92, 5.06 µM (inactive); in the assay on HCC 2998, > 10 µM (inactive); with KM12, 4.37 µM (inactive); in the assay with PC-3, > 10 µM (inactive); with RPMI-8226, 1.83 µM (inactive). Moreover, the GI50 with SNB-19 is 4.25 µM (inactive); in the assay on SK-MEL-28, > 10 µM (inactive); in the assay on SF-268, 2.51 µM (inactive); with RXF 393 it was 2.75 µM (inactive); with IGROV-1, 1.55 µM (inactive); with SK-OV-3, > 10 µM (inactive). The GI50 in the assay with NCI-H522 is > 10 µM (inactive).

As to `Cn1c2ccccc2c(=O)c2c(O)cc3c(c21)C=CC1(CCCC1)O3`, the GI50 with HOP-92 was 25.7 µM (inactive); in the assay on HCC 2998 it was > 100 µM (inactive); in the assay with KM12 it was > 100 µM (inactive); in the assay with PC-3 it was > 100 µM (inactive); with HCT-15, more than 100 µM; in the assay on OVCAR-8 it was > 100 µM (inactive). The GI50 with NCI/ADR-RES was > 100 µM (inactive); in the assay on Hs-578T, 95.7 µM (inactive); in the assay on RPMI-8226 it was > 100 µM (inactive); in the assay with SNB-19 it was > 100 µM (inactive); with SK-MEL-28, > 100 µM (inactive); with SF-268 it was > 100 µM (inactive). For the same compound, the GI50 is 22.7 µM (inactive) with RXF 393, 61.7 µM (inactive) in the assay with IGROV-1, > 100 µM (inactive) in the assay with SK-OV-3 and > 100 µM (inactive) in the assay on NCI-H522.

With `O=C1N=C(S)NNC12c1ccccc1-c1ccccc12`, the GI50 was 4.81 µM (inactive) in the assay on UO-31; > 10 µM (inactive) with HOP-92; > 10 µM (inactive) in the assay on HCC 2998; > 10 µM (inactive) in the assay with KM12; more than 10 µM with HCT-15; > 10 µM (inactive) in the assay with OVCAR-8. Further, the GI50 in the assay on NCI/ADR-RES was > 10 µM (inactive); with Hs-578T, 6.18 µM (inactive); with T47D, 1.98 µM (inactive); in the assay with RPMI-8226, > 10 µM (inactive); with SK-MEL-28, > 10 µM (inactive); in the assay on SF-268, > 10 µM (inactive). Also, the GI50 in the assay on IGROV-1 and in the assay on SK-OV-3 was > 10 µM (inactive) each time.

As to `COc1cc2c(c(OC)c1OC)C(=O)c1c(O)cc(C)c(OC)c1C2=O`, the GI50 with UO-31 was 85.3 µM (inactive); in the assay with HOP-92 it was > 100 µM (inactive); with HCC 2998, > 100 µM (inactive); with KM12 it was > 100 µM (inactive); in the assay with PC-3, > 100 µM (inactive); with HCT-15 it was more than 100 µM. Besides, the GI50 was > 100 µM (inactive) with OVCAR-8; 57.1 µM (inactive) with NCI/ADR-RES; 15.6 µM (inactive) in the assay on Hs-578T; > 100 µM (inactive) in the assay with RPMI-8226; 77.1 µM (inactive) in the assay with SNB-19; 37.2 µM (inactive) with SK-MEL-28. Further, the GI50 was > 100 µM (inactive) with SF-268, > 100 µM (inactive) with IGROV-1 and 57.1 µM (inactive) with NCI-H522.
